In patent US7951548B2, “IL-13 production inhibitor” (Takeda Pharmaceutical Company Limited, priority 2005, dated 2011):

How the values were obtained:
Assay type in all cases: cell-based
GPR34 [1] = target: T1, GPR34 (Homo sapiens, UniProt Q9UPC5); assay: Intracellular cAMP production inhibitory activity on GPR34-expressed CHO cells (forskolin stimulated); settings: phosphatidylserine in a higher concentration
T1 construct: expressed in transfected cells
Description: The GPR34-expressed CHO cells prepared in (1-2) described above and selected in (1-3) described above were plated on a 24-well plate in 6×10^4 cells/well followed by incubation for 48 hours. The cells were washed with αMEM medium (pH 7.5) containing 0.2 mM 3-isobutylmethylxanthine, 0.05% BSA and 20 mM HEPES (hereinafter αMEM medium (pH 7.5) containing 0.2 mM 3-isobutylmethylxanthine, 0.05% BSA and 20 mM HEPES is referred to as the reaction buffer). Thereafter, 0.5 mL of the reaction buffer was added and the mixture was kept warm for 30 minutes in an incubator. The reaction buffer was removed and 0.25 mL of fresh reaction buffer was replenished to the cells. Then, 0.25 mL of the reaction buffer containing a sample and 2 μM forskolin was added to the cells, followed by reacting at 37° C. for 30 minutes. The reaction solution was removed and 0.5 mL of the cell lysis solution attached to cAMP EIA kit (Applied Biosystems) to extract cAMP in the cells. The cAMP level in the extract was quantified using the same kit. Based on this measurement data, the cAMP production inhibitory activity was calculated based on the equation shown below and expressed in terms of percentage to the control group. […]

[2] = system: other receptor expression cells; assay: cAMP production inhibitory activity on other receptor expression cells
GPR34 [3] = target: T1, GPR34; assay: MAPK activation: phosphorylation of ERK1/2 in human GPR34-expressed CHO cells (western blotting); settings: PTX 0.1 μg/mL, 20 hours before the assay
Description: The cells were prepared as described below. Human GPR34-expressed CHO cells were scraped off with 0.05% trypsin-EDTA (GIBCO) and suspended in a medium (MEM-α (GIBCO), supplemented with 10% FBS (GIBCO) and penicillin/streptomycin (BIOWHITTAKER)). After centrifugation, the cells precipitated were suspended in the medium in 2×10^5 cells/ml and a 1 mL aliquot was plated on a 35 mm cell culture dish. After incubation overnight in a CO2 incubator, the medium was aspirated and washed in PBS. Then 1 mL of serum-free medium (MEM-α (GIBCO), supplemented with penicillin/streptomycin (BIOWHITTAKER)) and incubation was performed in a CO2 incubator. Pertussis toxin (hereinafter PTX) was added in a final concentration of 0.1 μg/mL 20 hours before the assay.
The cells were activated as follows. The medium was aspirated and washed in PBS. Thereafter, 500 μL of assay buffer (HBSS (GIBCO), 10 mM HEPES (Dojin Chemical Laboratory)) was added to perform preincubation for 15 minutes at 37° C. The lysoPS solution and […] of PECGF ([…] cell growth factor) solution as a positive control were added. After the mixture was incubated at 37° C., the reaction was terminated by quenching. The assay buffer was aspirated and washed in PBS. Then, 1×SDS sample buffer/DTT was added to the cells to recover the cells. After ultrasonication for 15 seconds, heating at 95° C. for 5 minutes was followed by quenching.
(§1) Detection by SDS-PAGE and western blotting were performed as follows. After separation using 10% Bis-Tris gel (Invitrogen), the gel was transferred to Immuno-Blot PVDF Membrane (Bio-Rad). The membrane was blocked with Block Ace (Dai-Nippon Pharmaceutical) and incubated at room temperature for an hour with a primary antibody (Phospho-p42/p44 MAP Kinase (Thr202/Thr204) Antibody (CST) or p42/p44 MAP Kinase Antibody (CST)) and further incubated at room temperature for an hour using a secondary antibody (Anti-rabbit IgG (CST)). The membrane after the antibody reaction was visualized by chemiluminescence using ECL PLUS (Amersham Biosciences). […]

[4] = system: mouse bone marrow-derived mast cells; assay: MAPK activation: phosphorylation of ERK1/2 in mouse bone marrow-derived mast cells (BMMC); settings: PTX 0.1 μg/mL, 4 hours before assay
Description: BMMC was established by collecting bone marrow fluid from the femur of male BALB/c mouse (Japan SLC), rinsing in RPMI1640 (Nikken Bio Medical Laboratory) and then incubating in a medium (RPMI1640, 50% WEHI-3 culture supernatant, 10% FBS (GIBCO), penicillin/streptomycin (BIOWHITTAKER), Non-Essential amino acids (GIBCO)) for 4 weeks. The cells were incubated in a CO2 incubator immediately before assay. Pertussis toxin (hereinafter PTX) was added to the cells in a final concentration of 0.1 μg/mL 4 hours before assay. BMMC was washed in ice-chilled assay buffer (Tyrode Buffer, 0.01% fatty acid free-BSA (SIGMA), 1 mM CaCl2, 1 mM MgCl2), and suspended in 2×10^6 cells/ml. The suspension was dispensed in a 1.5 mL tube followed by preincubation for 15 minutes at 37° C. The lysoPS solution and A23187 solution (Wako Pure Chemicals) as a positive control were added in equimolar amounts. After incubation at 37° C., the reaction was terminated by quenching. The cells were precipitated by centrifugation and the assay buffer was aspirated. After washing in PBS, 1×SDS sample buffer/DTT was added to the cells to lyse the cells. After ultrasonication for 15 seconds, the sample was heated at 95° C. for 5 minutes followed by quenching.
Detection by SDS-PAGE and western blotting were performed as follows. After separation using 10% Bis-Tris gel (Invitrogen), the gel was transferred to Immuno-Blot PVDF Membrane (BIO-RAD). The membrane was blocked with Block Ace (Dai-Nippon Pharmaceutical) and incubated at 4° C. overnight with a primary antibody (Phospho-p42/p44 MAP Kinase (Thr202/Thr204) Antibody (CST) or p42/p44 MAP Kinase Antibody (CST)) and further incubated at room temperature for an hour using a secondary antibody (Anti-rabbit IgG (CST)). The membrane after the antibody reaction was visualized by chemiluminescence using ECL PLUS (Amersham Biosciences). Detection and image analysis were performed using LAS1000 (FUJI FILM).

[5] = system: rat peritoneal mast cells; assay: MAPK activation: phosphorylation of ERK1/2 in rat peritoneal mast cells (RPMC); settings: PTX 0.1 μg/mL, 4 hours before assay
Description: Pertussis toxin (hereinafter PTX) was added to the cells in a final concentration of 0.1 μg/mL 4 hours before assay. RPMC was washed in ice-chilled assay buffer (Tyrode Buffer, 0.01% fatty acid free-BSA (SIGMA), 1 mM CaCl2, 1 mM MgCl2), and suspended in 2×10^6 cells/ml. The suspension was dispensed in a 1.5 mL tube followed by preincubation for 15 minutes at 37° C. The lysoPS solution was added thereto in an equimolar amount. After incubation at 37° C., the reaction was terminated by quenching. The cells were precipitated by centrifugation and the assay buffer was aspirated. After washing in PBS, 1×SDS sample buffer/DTT was added to the cells to lyse the cells. After ultrasonication for 15 seconds, heating at 95° C. for 5 minutes was followed by quenching.
as §1, with “PVDF Membrane (BIO-RAD). The membrane” for “PVDF Membrane (Bio-Rad). The membrane”, “incubated at 4° C. overnight with a” for “incubated at room temperature for an hour with a”, “an hour with a secondary” for “an hour using a secondary”

T1 sequence (Q9UPC5 whole entry): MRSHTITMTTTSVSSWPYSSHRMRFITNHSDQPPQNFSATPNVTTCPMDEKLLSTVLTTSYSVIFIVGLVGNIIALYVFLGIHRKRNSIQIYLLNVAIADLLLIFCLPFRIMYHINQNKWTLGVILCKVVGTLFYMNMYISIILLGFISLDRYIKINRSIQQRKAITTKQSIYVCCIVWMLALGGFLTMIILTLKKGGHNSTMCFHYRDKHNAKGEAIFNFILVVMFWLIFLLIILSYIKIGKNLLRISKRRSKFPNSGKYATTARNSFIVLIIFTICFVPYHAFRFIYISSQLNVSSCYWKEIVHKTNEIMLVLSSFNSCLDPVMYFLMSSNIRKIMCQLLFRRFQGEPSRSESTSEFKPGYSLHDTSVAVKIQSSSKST

Substance	cAMP production inhibitory activity (GPR34 [1])	cAMP production inhibitory action on other receptor expression cells [2]	effect of PTX pretreatment on phosphorylation of ERK1/2 by lysoPS (GPR34 [3])	effect of PTX pretreatment on phosphorylation of ERK1/2 by lysoPS [4]	effect of PTX pretreatment on phosphorylation of ERK1/2 by lysoPS [5]
phosphatidylserine	marked activities	not noted	–	–	–
Pertussis toxin [PTX]	–	–	attenuated to the level below the detection limit	attenuated to the level below the detection limit	attenuated to the level below the detection limit
